Experimental data taken from article doi:10.1101/2023.03.24.534094v2 (biorxiv, 2023).
Like-named read-outs stand apart in the source and are kept apart here. One block for each compound: values may come before it.

How the values were obtained:
Experiment in all cases: biochemical
[1] = target: STLK3 (Homo sapiens, UniProt Q9UEW8)
[2] = target: CLK3 (Homo sapiens, UniProt P49761)
[3] = target: T1, DMPK1 (Homo sapiens, UniProt Q09013)
T1 sequence (Q09013 1-629): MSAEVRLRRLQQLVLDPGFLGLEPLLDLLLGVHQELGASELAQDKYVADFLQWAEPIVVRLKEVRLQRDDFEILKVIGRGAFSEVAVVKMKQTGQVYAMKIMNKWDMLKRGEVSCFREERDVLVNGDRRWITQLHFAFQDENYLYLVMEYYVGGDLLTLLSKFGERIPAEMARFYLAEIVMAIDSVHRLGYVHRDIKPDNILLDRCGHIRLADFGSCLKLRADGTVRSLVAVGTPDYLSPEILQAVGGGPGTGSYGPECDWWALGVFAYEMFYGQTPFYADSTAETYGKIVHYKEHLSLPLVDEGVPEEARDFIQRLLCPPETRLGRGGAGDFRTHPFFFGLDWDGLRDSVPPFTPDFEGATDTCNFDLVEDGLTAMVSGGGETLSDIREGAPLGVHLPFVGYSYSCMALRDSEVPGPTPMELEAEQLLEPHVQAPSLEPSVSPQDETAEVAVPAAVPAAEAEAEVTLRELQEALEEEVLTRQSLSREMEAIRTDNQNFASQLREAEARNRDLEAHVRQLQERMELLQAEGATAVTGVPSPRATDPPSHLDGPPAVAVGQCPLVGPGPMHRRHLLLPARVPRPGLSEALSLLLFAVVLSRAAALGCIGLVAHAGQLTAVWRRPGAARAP

[4] = target: T2, GAK (Homo sapiens, UniProt O14976)
T2 sequence (O14976 1-1311): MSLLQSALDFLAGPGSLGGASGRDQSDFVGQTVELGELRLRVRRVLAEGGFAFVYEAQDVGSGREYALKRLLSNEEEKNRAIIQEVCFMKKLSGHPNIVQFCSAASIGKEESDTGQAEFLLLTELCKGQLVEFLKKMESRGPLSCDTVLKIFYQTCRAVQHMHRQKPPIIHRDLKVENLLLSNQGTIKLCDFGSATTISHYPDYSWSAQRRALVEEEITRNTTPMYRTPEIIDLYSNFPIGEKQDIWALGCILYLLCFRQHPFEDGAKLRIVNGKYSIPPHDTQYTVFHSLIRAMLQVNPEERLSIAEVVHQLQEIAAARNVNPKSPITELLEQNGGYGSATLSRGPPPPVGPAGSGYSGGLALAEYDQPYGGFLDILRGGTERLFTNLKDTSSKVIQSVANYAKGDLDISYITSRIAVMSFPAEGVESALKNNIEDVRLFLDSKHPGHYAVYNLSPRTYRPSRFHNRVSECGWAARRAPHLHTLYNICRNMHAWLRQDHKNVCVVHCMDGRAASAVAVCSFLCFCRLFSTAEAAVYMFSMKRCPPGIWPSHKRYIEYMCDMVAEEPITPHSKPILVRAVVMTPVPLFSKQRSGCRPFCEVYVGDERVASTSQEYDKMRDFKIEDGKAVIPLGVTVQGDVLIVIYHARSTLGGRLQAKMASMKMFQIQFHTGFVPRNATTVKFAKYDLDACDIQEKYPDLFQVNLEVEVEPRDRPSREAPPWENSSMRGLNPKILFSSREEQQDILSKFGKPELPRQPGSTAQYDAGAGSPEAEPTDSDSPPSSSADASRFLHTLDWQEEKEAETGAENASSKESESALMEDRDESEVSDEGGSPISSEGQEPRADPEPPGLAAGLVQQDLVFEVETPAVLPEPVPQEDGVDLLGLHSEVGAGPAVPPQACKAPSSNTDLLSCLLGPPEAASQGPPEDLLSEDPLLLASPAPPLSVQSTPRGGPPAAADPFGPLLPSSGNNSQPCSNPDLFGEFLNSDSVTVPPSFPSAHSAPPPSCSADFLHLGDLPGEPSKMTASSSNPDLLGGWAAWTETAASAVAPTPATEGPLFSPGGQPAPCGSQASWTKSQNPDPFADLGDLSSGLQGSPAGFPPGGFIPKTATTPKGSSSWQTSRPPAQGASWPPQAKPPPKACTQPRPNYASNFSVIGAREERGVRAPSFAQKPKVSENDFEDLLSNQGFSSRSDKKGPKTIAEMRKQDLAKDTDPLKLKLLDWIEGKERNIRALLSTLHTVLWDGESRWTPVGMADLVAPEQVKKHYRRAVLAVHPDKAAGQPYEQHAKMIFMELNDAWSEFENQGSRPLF

[5] = target: T3, MAP2K4 (Homo sapiens, UniProt P45985)
T3 sequence (P45985 1-399): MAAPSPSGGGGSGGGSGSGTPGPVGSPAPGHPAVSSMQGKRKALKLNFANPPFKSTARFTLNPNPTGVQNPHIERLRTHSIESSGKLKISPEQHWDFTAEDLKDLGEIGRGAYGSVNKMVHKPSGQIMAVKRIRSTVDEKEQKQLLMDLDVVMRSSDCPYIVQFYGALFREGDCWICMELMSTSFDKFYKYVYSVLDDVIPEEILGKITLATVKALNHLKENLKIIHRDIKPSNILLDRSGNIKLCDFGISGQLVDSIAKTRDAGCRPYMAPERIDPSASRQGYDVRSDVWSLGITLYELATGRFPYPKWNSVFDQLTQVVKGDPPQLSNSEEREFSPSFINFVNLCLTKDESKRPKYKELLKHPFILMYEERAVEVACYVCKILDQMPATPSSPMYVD

[6] = target: DAPK1 (Homo sapiens, UniProt P53355)
Sequence of DAPK1 (P53355 whole entry): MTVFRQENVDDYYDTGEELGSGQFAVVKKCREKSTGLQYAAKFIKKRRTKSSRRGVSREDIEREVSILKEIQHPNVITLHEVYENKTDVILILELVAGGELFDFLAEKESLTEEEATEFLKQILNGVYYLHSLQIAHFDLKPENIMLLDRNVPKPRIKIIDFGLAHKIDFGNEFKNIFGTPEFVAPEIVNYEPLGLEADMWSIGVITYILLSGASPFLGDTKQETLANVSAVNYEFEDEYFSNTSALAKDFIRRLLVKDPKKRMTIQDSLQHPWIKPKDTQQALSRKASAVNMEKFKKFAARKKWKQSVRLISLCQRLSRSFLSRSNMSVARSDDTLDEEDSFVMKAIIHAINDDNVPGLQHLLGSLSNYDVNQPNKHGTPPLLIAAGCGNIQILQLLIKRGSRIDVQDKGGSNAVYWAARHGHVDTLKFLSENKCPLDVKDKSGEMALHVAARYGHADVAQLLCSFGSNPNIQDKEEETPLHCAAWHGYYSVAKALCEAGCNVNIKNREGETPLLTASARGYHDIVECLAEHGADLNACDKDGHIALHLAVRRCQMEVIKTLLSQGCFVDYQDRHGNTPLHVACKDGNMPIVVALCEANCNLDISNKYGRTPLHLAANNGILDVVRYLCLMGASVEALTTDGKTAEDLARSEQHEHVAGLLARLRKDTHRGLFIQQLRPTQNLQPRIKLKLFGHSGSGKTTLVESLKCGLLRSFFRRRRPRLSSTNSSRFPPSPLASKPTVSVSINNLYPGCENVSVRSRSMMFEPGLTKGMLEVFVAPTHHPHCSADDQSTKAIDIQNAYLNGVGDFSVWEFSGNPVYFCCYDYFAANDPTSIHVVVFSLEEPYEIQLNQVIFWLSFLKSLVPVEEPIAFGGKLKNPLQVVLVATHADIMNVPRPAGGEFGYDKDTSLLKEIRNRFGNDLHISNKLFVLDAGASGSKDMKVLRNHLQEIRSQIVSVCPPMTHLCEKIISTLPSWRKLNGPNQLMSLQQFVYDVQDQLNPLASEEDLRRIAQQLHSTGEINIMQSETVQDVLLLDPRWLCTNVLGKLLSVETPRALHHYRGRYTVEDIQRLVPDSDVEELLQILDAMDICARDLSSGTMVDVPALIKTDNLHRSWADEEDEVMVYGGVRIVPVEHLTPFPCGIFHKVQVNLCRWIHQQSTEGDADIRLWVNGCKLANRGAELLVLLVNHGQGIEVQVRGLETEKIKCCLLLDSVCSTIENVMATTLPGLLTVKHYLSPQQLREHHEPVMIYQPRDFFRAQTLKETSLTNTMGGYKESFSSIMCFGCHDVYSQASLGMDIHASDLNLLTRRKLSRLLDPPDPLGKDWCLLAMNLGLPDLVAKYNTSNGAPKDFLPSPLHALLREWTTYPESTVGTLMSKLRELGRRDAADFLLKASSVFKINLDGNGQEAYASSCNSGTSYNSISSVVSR

[7] = target: SLK (Homo sapiens, UniProt Q9H2G2)
Sequence of SLK (Q9H2G2 whole entry): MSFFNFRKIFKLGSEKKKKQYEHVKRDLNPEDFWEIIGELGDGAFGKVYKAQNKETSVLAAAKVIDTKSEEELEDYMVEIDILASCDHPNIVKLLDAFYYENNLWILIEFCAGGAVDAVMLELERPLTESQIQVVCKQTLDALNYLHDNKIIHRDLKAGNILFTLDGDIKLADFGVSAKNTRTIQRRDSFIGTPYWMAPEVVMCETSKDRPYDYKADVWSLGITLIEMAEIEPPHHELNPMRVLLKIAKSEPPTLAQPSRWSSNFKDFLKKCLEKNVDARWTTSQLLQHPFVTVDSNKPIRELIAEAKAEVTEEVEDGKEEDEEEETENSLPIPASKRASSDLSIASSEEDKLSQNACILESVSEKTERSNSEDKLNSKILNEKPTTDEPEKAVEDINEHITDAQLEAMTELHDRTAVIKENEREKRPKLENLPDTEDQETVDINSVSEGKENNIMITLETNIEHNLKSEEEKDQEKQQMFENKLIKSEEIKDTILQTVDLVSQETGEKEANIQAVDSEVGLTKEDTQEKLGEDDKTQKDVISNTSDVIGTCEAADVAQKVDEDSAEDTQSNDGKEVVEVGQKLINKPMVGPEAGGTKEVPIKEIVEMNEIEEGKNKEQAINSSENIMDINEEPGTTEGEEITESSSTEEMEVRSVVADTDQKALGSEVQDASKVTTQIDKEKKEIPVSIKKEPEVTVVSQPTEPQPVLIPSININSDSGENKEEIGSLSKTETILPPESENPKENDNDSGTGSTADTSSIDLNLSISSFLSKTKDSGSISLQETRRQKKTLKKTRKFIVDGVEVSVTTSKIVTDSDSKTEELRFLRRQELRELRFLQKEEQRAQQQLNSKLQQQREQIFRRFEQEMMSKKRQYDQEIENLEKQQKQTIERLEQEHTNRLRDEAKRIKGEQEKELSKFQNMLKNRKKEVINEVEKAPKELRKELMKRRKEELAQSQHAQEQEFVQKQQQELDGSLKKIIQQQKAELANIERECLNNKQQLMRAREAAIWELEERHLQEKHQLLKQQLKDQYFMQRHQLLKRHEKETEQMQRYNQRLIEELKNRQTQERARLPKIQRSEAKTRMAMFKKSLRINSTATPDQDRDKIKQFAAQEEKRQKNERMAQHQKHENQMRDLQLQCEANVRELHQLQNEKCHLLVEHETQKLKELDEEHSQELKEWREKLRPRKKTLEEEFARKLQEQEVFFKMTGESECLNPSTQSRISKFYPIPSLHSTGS

[8] = target: CK1e (Homo sapiens, UniProt P49674)
Sequence of CK1e (P49674 whole entry): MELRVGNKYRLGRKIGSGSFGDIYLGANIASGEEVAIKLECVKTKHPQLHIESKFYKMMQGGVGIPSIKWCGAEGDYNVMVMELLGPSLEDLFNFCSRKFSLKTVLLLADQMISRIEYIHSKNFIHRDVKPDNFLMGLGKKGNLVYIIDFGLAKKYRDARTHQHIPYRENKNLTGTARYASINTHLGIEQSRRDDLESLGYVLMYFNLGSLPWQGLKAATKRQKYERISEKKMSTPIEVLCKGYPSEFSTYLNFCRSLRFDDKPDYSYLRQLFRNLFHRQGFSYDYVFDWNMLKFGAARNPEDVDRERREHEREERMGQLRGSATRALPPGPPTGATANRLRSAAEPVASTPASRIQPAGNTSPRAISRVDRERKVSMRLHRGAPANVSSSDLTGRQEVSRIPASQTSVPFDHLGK

Sequence of CLK3 (P49761 whole entry): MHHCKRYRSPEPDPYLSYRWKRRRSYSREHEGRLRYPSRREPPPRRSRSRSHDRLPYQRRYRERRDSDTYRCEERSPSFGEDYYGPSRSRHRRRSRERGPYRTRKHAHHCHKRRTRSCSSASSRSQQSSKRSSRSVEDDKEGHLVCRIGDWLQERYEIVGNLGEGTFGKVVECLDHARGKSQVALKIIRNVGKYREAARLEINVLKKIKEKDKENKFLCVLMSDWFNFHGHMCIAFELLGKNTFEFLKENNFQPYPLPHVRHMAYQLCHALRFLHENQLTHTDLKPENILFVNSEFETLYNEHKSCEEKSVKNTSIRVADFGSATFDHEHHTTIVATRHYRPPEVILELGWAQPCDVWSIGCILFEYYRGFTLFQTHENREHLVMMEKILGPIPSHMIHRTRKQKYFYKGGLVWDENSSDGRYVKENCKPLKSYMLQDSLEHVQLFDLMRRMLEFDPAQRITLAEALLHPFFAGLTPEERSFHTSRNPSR

Structure (SMILES): CNc1ncc2cc(-c3cc(Br)ccc3Cl)c(=O)n(C[C@H]3OC[C@H](N)CO3)c2n1 [compound 7, 8-(((2r,5r)-5-Amino-1,3-dioxan-2-yl)methyl)-6-(5-bromo-2-chlorophenyl)-2-(methylamino)pyrido[2,3-d]pyrimidin-7(8H)-one]
ΔTm at 10 µM ([1]; read-out: dTm 7): 0 °C | ΔTm at 10 µM ([2]; read-out: dTm 7): 0.5 °C | ΔTm at 10 µM ([3]; read-out: dTm 7): -0.1 °C | ΔTm at 10 µM ([4]; read-out: dTm 7): 2.6 °C | ΔTm at 10 µM ([5]; read-out: dTm 7): 2.1 °C | ΔTm at 10 µM ([6]; read-out: dTm 7): 0.1 °C

Structure (SMILES): CNc1ncc2cc(-c3ccc(-c4cccc(C)n4)cc3Cl)c(=O)n(CC3OCC(N)CO3)c2n1 (stereo not drawn) [compound 2, G-5555]
dTm G-5555 (2) ([1]; 10 µM, binder): 0.6 °C | dTm G-5555 (2) ([2]; 10 µM, binder): 0.1 °C | dTm G-5555 (2) ([3]; 10 µM, binder): -0.3 °C | dTm G-5555 (2) ([4]; 10 µM, binder): 6.1 °C | dTm G-5555 (2) ([7]; 10 µM, binder): 7.2 °C | dTm G-5555 (2) ([5]; 10 µM, binder): 6.4 °C | dTm G-5555 (2) ([6]; 10 µM, binder): -1.0 °C

Structure (SMILES): CNc1ncc2cc(-c3ccccc3Cl)c(=O)n(CCCCN)c2n1 [compound 4, 8-(4-Aminobutyl)-6-(2-chlorophenyl)-2-(methylamino)pyrido[2,3-d]pyrimidin-7(8H)-one]
ΔTm at 10 µM ([1]; read-out: dTm MR21 (4)): -1.1 °C | ΔTm at 10 µM ([8]; read-out: dTm MR21 (4)): 4.9 °C | ΔTm at 10 µM ([2]; read-out: dTm MR21 (4)): 0 °C | ΔTm at 10 µM ([3]; read-out: dTm MR21 (4)): 2.8 °C | ΔTm at 10 µM ([4]; read-out: dTm MR21 (4)): 6.6 °C | ΔTm at 10 µM ([7]; read-out: dTm MR21 (4)): 1.6 °C | ΔTm at 10 µM ([5]; read-out: dTm MR21 (4)): 3.3 °C | ΔTm at 10 µM ([6]; read-out: dTm MR21 (4)): -0.2 °C

More lines, now with the values ahead:

ΔTm at 10 µM ([1]; read-out: dTm 6): 0.2 °C | ΔTm at 10 µM ([8]; read-out: dTm 6): 2.6 °C | ΔTm at 10 µM ([2]; read-out: dTm 6): -0.3 °C | ΔTm at 10 µM ([3]; read-out: dTm 6): 1.2 °C | ΔTm at 10 µM ([4]; read-out: dTm 6): 4.1 °C | ΔTm at 10 µM ([5]; read-out: dTm 6): 2.5 °C | ΔTm at 10 µM ([6]; read-out: dTm 6): -0.2 °C
Structure (SMILES): CNc1ncc2cc(-c3cc(Br)ccc3Cl)c(=O)n(CCCCN)c2n1 [compound 6, 8-(4-Aminobutyl)-6-(5-bromo-2-chlorophenyl)-2-(methylamino)pyrido[2,3-d]pyrimidin-7(8H)-one]

ΔTm at 10 µM ([1]; read-out: dTm MR22 (5)): 2.1 °C | ΔTm at 10 µM ([8]; read-out: dTm MR22 (5)): 2.8 °C | ΔTm at 10 µM ([2]; read-out: dTm MR22 (5)): -0.4 °C | ΔTm at 10 µM ([3]; read-out: dTm MR22 (5)): 0.9 °C | ΔTm at 10 µM ([4]; read-out: dTm MR22 (5)): 5.4 °C | ΔTm at 10 µM ([7]; read-out: dTm MR22 (5)): -0.6 °C | ΔTm at 10 µM ([5]; read-out: dTm MR22 (5)): 1.5 °C | ΔTm at 10 µM ([6]; read-out: dTm MR22 (5)): -0.7 °C
Structure (SMILES): CNc1ncc2cc(-c3cc(F)ccc3F)c(=O)n(CCCCN)c2n1 [compound 5, 8-(4-Aminobutyl)-6-(2,5-difluorophenyl)-2-(methylamino)pyrido[2,3-d]pyrimidin-7(8H)-one]
